Measurements as given in PubChem BioAssay AID1963973 (Molecular Pharmacology Branch, DTP, NCI, 2024).

Test system: 883617-216-R-J1-PDC tumor spheroids, viability
Experiment: Anticancer human tumor 883617-216-R-J1-PDC patient-derived bladder carcinoma cell line growth inhibition [PI3K]
Conditions: spheroids with HUVEC and MSC; for IC50: curve of first compound; for viability, T/C: stronger effect = lower value
How it was run: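 Stroma-containing spheroids: tumor line, pooled-donor HUVEC, hMSC. Treatments: targeted agents with PI3K inhibitors. Dosing: clinically relevant, half-log spacing, 10 microM ceiling without known Cmax. Read-out: cell viability.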
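Note: spheroids exposed to agents for 7 days before the viability read.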

IC50 (second compound 0.0316 µM): > 100 nM | IC50 (second compound 0.1 µM): > 100 nM | IC50 (second compound 0.316 µM): > 100 nM | IC50 (second compound 1 µM): > 100 nM | IC50 (second compound 3.16 µM): 72.3 nM | IC50 (second compound 10 µM): 0.867 nM
Compound: Cn1ncnc1[C@H]1c2n[nH]c(=O)c3cc(F)cc(c23)N[C@@H]1c1ccc(F)cc1 + CC(Nc1ncnc2nc[nH]c12)c1cc2cccc(Cl)c2c(=O)n1-c1ccccc1
viability, T/C (second compound 0.0316 µM, first compound 0.000316 µM): 99% | viability, T/C (second compound 0.0316 µM, first compound 0.001 µM): 106% | viability, T/C (second compound 0.0316 µM, first compound 0.00316 µM): 72.5% | viability, T/C (second compound 0.0316 µM, first compound 0.01 µM): 86.4% | viability, T/C (second compound 0.0316 µM, first compound 0.0316 µM): 76.8% | viability, T/C (second compound 0.0316 µM, first compound 0.1 µM): 51% | viability, T/C (second compound 0.1 µM, first compound 0.000316 µM): 108% | viability, T/C (second compound 0.1 µM, first compound 0.001 µM): 101% | viability, T/C (second compound 0.1 µM, first compound 0.00316 µM): 72.6% | viability, T/C (second compound 0.1 µM, first compound 0.01 µM): 66.1% | viability, T/C (second compound 0.1 µM, first compound 0.0316 µM): 74.9% | viability, T/C (second compound 0.1 µM, first compound 0.1 µM): 67% | viability, T/C (second compound 0.316 µM, first compound 0.000316 µM): 82.4% | viability, T/C (second compound 0.316 µM, first compound 0.001 µM): 82.6% | viability, T/C (second compound 0.316 µM, first compound 0.00316 µM): 85.1% | viability, T/C (second compound 0.316 µM, first compound 0.01 µM): 70.8% | viability, T/C (second compound 0.316 µM, first compound 0.0316 µM): 54.5% | viability, T/C (second compound 0.316 µM, first compound 0.1 µM): 65.4% | viability, T/C (second compound 1 µM, first compound 0.000316 µM): 84.6% | viability, T/C (second compound 1 µM, first compound 0.001 µM): 80.1% | viability, T/C (second compound 1 µM, first compound 0.00316 µM): 66.1% | viability, T/C (second compound 1 µM, first compound 0.01 µM): 62% | viability, T/C (second compound 1 µM, first compound 0.0316 µM): 62.5% | viability, T/C (second compound 1 µM, first compound 0.1 µM): 57.5% | viability, T/C (second compound 3.16 µM, first compound 0.000316 µM): 81.1% | viability, T/C (second compound 3.16 µM, first compound 0.001 µM): 71% | viability, T/C (second compound 3.16 µM, first compound 0.00316 µM): 60.1% | viability, T/C (second compound 3.16 µM, first compound 0.01 µM): 58.4% | viability, T/C (second compound 3.16 µM, first compound 0.0316 µM): 56.3% | viability, T/C (second compound 3.16 µM, first compound 0.1 µM): 46.6% | viability, T/C (second compound 10 µM, first compound 0.000316 µM): 61.6% | viability, T/C (second compound 10 µM, first compound 0.001 µM): 41.7% | viability, T/C (second compound 10 µM, first compound 0.00316 µM): 45% | viability, T/C (second compound 10 µM, first compound 0.01 µM): 40.5% | viability, T/C (second compound 10 µM, first compound 0.0316 µM): 35.5% | viability, T/C (second compound 10 µM, first compound 0.1 µM): 29.4%
